Data reported in PubChem BioAssay AID330 (DTP/NCI, 2004).
Values joined by “and” are separate entries in the source; they are usually repeats but may differ in a detail not shown here. Identical values can stand only once. Inconclusive results and toxic doses are left out. Peptide text beside a SMILES is read from it. * marks the point of attachment. Cbz = O=C(OCc1ccccc1)*

Tested on: P388 leukemia ip, CD2F1 mice, survival T/C
Test: NCI In Vivo Anticancer Drug Screen. Data for tumor model P388 Leukemia (intraperitoneal) in CD2F1 (CDF1) mice
Settings: endpoint: median survival time, higher = longer survival
Summary of the method: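 Mice carrying the transplanted tumor received test compound or vehicle. Survival was recorded in each group, and the value is the treated-group measurement divided by that of the vehicle-treated control group.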

[1] = dose: 50.0 mg/kg/injection, schedule: Q01DX005 (ip), vehicle: saline with Tween-80
[2] = dose: 100.0 mg/kg/injection, schedule: Q01DX005 (ip), vehicle: saline with Tween-80
[3] = dose: 50.0 mg/kg/injection, schedule: Q01DX009 (ip), vehicle: saline with Tween-80
[4] = dose: 100.0 mg/kg/injection, schedule: Q01DX009 (ip), vehicle: saline with Tween-80
[5] = dose: 200.0 mg/kg/injection, schedule: Q01DX009 (ip), vehicle: saline with Tween-80
[6] = dose: 100.0 mg/kg/injection, schedule: Q04DX002 (ip), vehicle: saline
[7] = dose: 200.0 mg/kg/injection, schedule: Q01DX005 (ip), vehicle: saline with Tween-80
[8] = dose: 6.25 mg/kg/injection, schedule: Q01DX009 (ip), vehicle: saline with Tween-80
[9] = dose: 12.5 mg/kg/injection, schedule: Q01DX009 (ip), vehicle: saline with Tween-80
[10] = dose: 25.0 mg/kg/injection, schedule: Q01DX009 (ip), vehicle: saline with Tween-80
[11] = dose: 12.5 mg/kg/injection, schedule: Q01DX005 (ip), vehicle: Klucel (hydroxypropylcellulose) (HPC)
[12] = dose: 25.0 mg/kg/injection, schedule: Q01DX005 (ip), vehicle: Klucel (hydroxypropylcellulose) (HPC)
[13] = dose: 50.0 mg/kg/injection, schedule: Q01DX005 (ip), vehicle: Klucel (hydroxypropylcellulose) (HPC)
[14] = dose: 50.0 mg/kg/injection, schedule: Q01DX009 (ip), vehicle: saline
[15] = dose: 100.0 mg/kg/injection, schedule: Q01DX009 (ip), vehicle: saline
[16] = dose: 200.0 mg/kg/injection, schedule: Q01DX009 (ip), vehicle: saline
[17] = dose: 50.0 mg/kg/injection, schedule: Q01DX009 (ip), vehicle: Klucel (hydroxypropylcellulose) (HPC)
[18] = dose: 100.0 mg/kg/injection, schedule: Q01DX005 (ip), vehicle: Klucel (hydroxypropylcellulose) (HPC)

O=[N+]([O-])c1ccc(C=C2C=CN(CCO)C=C2)cc1
T/C [1]: 100 % of control | T/C [2]: 108 % of control

O=C(O)CC(=O)Nc1ccccc1S
T/C [3]: 102 % of control | T/C [4]: 90 % of control | T/C [5]: 101 % of control

C=C1CC2(OC1=O)C(C1COC(C)(C)O1)OC1OC(C)(C)OC12 (stereo not given)
T/C (dose: 25.0 mg/kg/injection, schedule: Q04DX002 (ip), vehicle: saline): 96 % of control | T/C [1]: 105 % of control | T/C (dose: 50.0 mg/kg/injection, schedule: Q04DX002 (ip), vehicle: saline): 99 % of control | T/C [2]: 110 % of control | T/C [6]: 104 % of control | T/C [7]: 105 % of control

ONC1CC(NO)CC(NO)C1 (stereo not given)
T/C (dose: 100.0 mg/kg/injection, schedule: Q01DX001 (ip), vehicle: saline): 117 % of control | T/C (dose: 200.0 mg/kg/injection, schedule: Q01DX001 (ip), vehicle: saline): 110 % of control

O=C1c2ccccc2C(=O)C(Cl)C1Cl (stereo not given)
T/C (dose: 1.56 mg/kg/injection, schedule: Q01DX009 (ip), vehicle: saline with Tween-80): 100 % of control | T/C (dose: 3.13 mg/kg/injection, schedule: Q01DX009 (ip), vehicle: saline with Tween-80): 101 % of control

Cc1ccc(C[n+]2ccc3c([N+](=O)[O-])cccc3c2)cc1
T/C [8]: 112 % of control | T/C [9]: 113 % of control | T/C [10]: 114 % of control

C=CC(C)(C)c1ccc(O)c(CC=C(C)C)c1
T/C [11]: 100 % of control | T/C [12]: 102 % of control | T/C [13]: 102 % of control

Nc1ccc2c(NCCCCCCNc3c4ccccc4nc4cc(N)ccc34)c3ccccc3nc2c1
T/C (dose: 0.63 mg/kg/injection, schedule: Q01DX009 (ip), vehicle: other): 122 % of control

COc1cc2c(cc1C(C)=O)C=CC(C)(C)O2
T/C (dose: 22.5 mg/kg/injection, schedule: Q01DX005 (ip), vehicle: Klucel (hydroxypropylcellulose) (HPC)): 100 % of control | T/C (dose: 45.0 mg/kg/injection, schedule: Q01DX005 (ip), vehicle: Klucel (hydroxypropylcellulose) (HPC)): 100 % of control | T/C (dose: 90.0 mg/kg/injection, schedule: Q01DX005 (ip), vehicle: Klucel (hydroxypropylcellulose) (HPC)): 94 % of control | T/C (dose: 180.0 mg/kg/injection, schedule: Q01DX005 (ip), vehicle: Klucel (hydroxypropylcellulose) (HPC)): 98 % of control

O=Cc1nnc(-c2ccccc2)o1
T/C (dose: 12.5 mg/kg/injection, schedule: Q01DX009 (ip), vehicle: DMSO): 90 % of control | T/C (dose: 25.0 mg/kg/injection, schedule: Q01DX009 (ip), vehicle: DMSO): 98 % of control | T/C (dose: 50.0 mg/kg/injection, schedule: Q01DX009 (ip), vehicle: DMSO): 93 % of control

O=C(Nc1ccccc1C(=O)c1ccccc1)Nc1ccc(F)cc1[N+](=O)[O-]
T/C [3]: 97 % of control | T/C [4]: 109 % of control | T/C [5]: 94 % of control

Nc1n[n+](-c2cccc([N+](=O)[O-])c2)no1
T/C (dose: 3.13 mg/kg/injection, schedule: Q01DX009 (ip), vehicle: other): 113 % of control | T/C (dose: 3.13 mg/kg/injection, schedule: Q01DX009 (ip), vehicle: water): 106 % of control | T/C (dose: 6.25 mg/kg/injection, schedule: Q01DX009 (ip), vehicle: other): 113 % of control | T/C (dose: 6.25 mg/kg/injection, schedule: Q01DX009 (ip), vehicle: water): 110 % of control | T/C (dose: 25.0 mg/kg/injection, schedule: Q01DX009 (ip), vehicle: water): 121 % of control | T/C (dose: 50.0 mg/kg/injection, schedule: Q01DX009 (ip), vehicle: other): 113 % of control

CC(O)CCC(=O)c1nc2ccccc2s1 (stereo not given)
T/C (dose: 60.0 mg/kg/injection, schedule: Q01DX005 (ip), vehicle: Klucel (hydroxypropylcellulose) (HPC)): 95 % of control | T/C (dose: 120.0 mg/kg/injection, schedule: Q01DX005 (ip), vehicle: Klucel (hydroxypropylcellulose) (HPC)): 100 % of control | T/C (dose: 240.0 mg/kg/injection, schedule: Q01DX005 (ip), vehicle: Klucel (hydroxypropylcellulose) (HPC)): 98 % of control

CC(C)(C)C(=O)CC(=O)C(F)(F)C(F)(F)C(F)(F)F.CC(C)(C)C(=O)CC(=O)C(F)(F)C(F)(F)C(F)(F)F.CC(C)(C)C(=O)CC(=O)C(F)(F)C(F)(F)C(F)(F)F.[Pr]
T/C (dose: 120.0 mg/kg/injection, schedule: Q01DX005 (ip), vehicle: saline with Tween-80): 116 % of control | T/C (dose: 240.0 mg/kg/injection, schedule: Q01DX005 (ip), vehicle: saline with Tween-80): 113 % of control

NS(=O)(=O)c1ccc(N2CCS(=O)(=O)CC2)cc1
T/C [14]: 101 % of control | T/C [15]: 90 % of control | T/C [16]: 97 % of control

COC1C2CC3C4(CCC5C6(C)CCCC53C(C14)N(C)C6)CC21CCC23C4C=C5C6=C(CCC5(CC42)C3O1)C1(C)CC(C6)CN(C)C1 (stereo not given)
T/C (dose: 12.5 mg/kg/injection, schedule: Q01DX009 (ip), vehicle: Klucel (hydroxypropylcellulose) (HPC)): 91 % of control | T/C (dose: 25.0 mg/kg/injection, schedule: Q01DX009 (ip), vehicle: Klucel (hydroxypropylcellulose) (HPC)): 94 % of control | T/C [17]: 98 % of control

O=Nc1cc(S(=O)(=O)O)c2cccnc2c1O
T/C [6]: 100 % of control | T/C (dose: 200.0 mg/kg/injection, schedule: Q04DX002 (ip), vehicle: saline): 100 % of control | T/C (dose: 400.0 mg/kg/injection, schedule: Q04DX002 (ip), vehicle: saline): 90 % of control

CN(N=O)C(=O)Nc1cc(=O)[nH]c(SCc2ccccc2)n1
T/C [11]: 104 % of control | T/C [12]: 114 % of control | T/C [13]: 124 % of control | T/C [18]: 160 % of control

O=C(OCCN(CCOC(=O)c1ccc([N+](=O)[O-])cc1)c1c[nH]c(=O)[nH]c1=O)c1ccc([N+](=O)[O-])cc1
T/C [1]: 96 % of control | T/C [2]: 104 % of control | T/C [7]: 96 % of control

COc1ccccc1N=NC1=C2Sc3ccccc3N=C1N(c1ccccn1)C(=S)N2c1ccc(Cl)cc1
T/C (dose: 12.5 mg/kg/injection, schedule: Q01DX005 (ip), vehicle: saline with Tween-80): 103 % of control | T/C (dose: 25.0 mg/kg/injection, schedule: Q01DX005 (ip), vehicle: saline with Tween-80): 100 % of control | T/C [1]: 110 % of control and 117 % of control

COC(=O)C(C)CSc1ccccc1 (stereo not given)
T/C (dose: 60.0 mg/kg/injection, schedule: Q01DX005 (ip), vehicle: saline): 99 % of control | T/C (dose: 120.0 mg/kg/injection, schedule: Q01DX005 (ip), vehicle: saline): 107 % of control

c1ccc2c(c1)SP(P1Sc3ccccc3S1)S2
T/C [17]: 100 % of control | T/C (dose: 100.0 mg/kg/injection, schedule: Q01DX009 (ip), vehicle: Klucel (hydroxypropylcellulose) (HPC)): 107 % of control

COc1ccc(C[n+]2cc([O-])on2)cc1
T/C [8]: 100 % of control | T/C [9]: 100 % of control | T/C [10]: 100 % of control and 104 % of control and 95 % of control | T/C [3]: 122 % of control | T/C (dose: 66.0 mg/kg/injection, schedule: Q01DX009 (ip), vehicle: saline with Tween-80): 118 % of control and 122 % of control

O=C(O)c1ccc(Cc2ccc(C(=O)O)cc2)cc1 (tested in a mixture with another compound)
T/C [14]: 95 % of control | T/C [15]: 99 % of control | T/C [16]: 104 % of control

O=C(CCl)NC(O)C(Cl)(Cl)Cl (stereo not given)
T/C [1]: 101 % of control | T/C [2]: 99 % of control | T/C [7]: 103 % of control

CCC(C)C(NC(=O)OCc1ccccc1)C(=O)NC(CCSC)C(=O)O (stereo not drawn) (Cbz-Ile-Met-OH; configuration not given here)
T/C [13]: 99 % of control | T/C [18]: 100 % of control | T/C (dose: 200.0 mg/kg/injection, schedule: Q01DX005 (ip), vehicle: Klucel (hydroxypropylcellulose) (HPC)): 96 % of control
